PMC8019628, “Acetylcholinesterase Inhibitory and Antioxidant Activity of the Compounds Isolated from Vanda roxburghii” (Advances in Pharmacological and Pharmaceutical Sciences, 2021)
Values after ≈ are worked out from the molar mass of the structure shown. Read-outs that look alike come from different tables or passages of the source.

How the values were obtained:
[1] = DPPH radical scavenging assay; settings: mean ± SD (n = 3)
Protocol: The DPPH radical scavenging ability of the compounds was estimated using the method described by Choi et al.. Catechin was used as a standard antioxidant for comparison. Compound at different concentrations was added to a methanolic solution of DPPH (0.135 mM) and vortexed and left for 30 minutes in the dark. The absorbance of the reaction mixture was measured spectrophotometrically at 517 nm. DPPH free radical scavenging ability (%) was calculated by using the following formula:(4) Absorbance of control−Absorbance of sample/Absorbance of control×100.
The result was presented as IC50 value which is the concentration required to cause 50% scavenging. The IC50 value was calculated from the graph plotted as percent scavenging of DPPH free radical against concentration of each compound.

[2] = Total antioxidant capacity (reduction of Mo (VI) to Mo (V)); settings: 80 μg/ml, 695 nm, mean ± SD (n = 3)
Protocol: The antioxidant capacity of the compounds was assessed by the method as described earlier. The compound was added to a mixture of sulphuric acid (0.6 M), sodium phosphate (28 mM), and ammonium molybdate (4 mM) and heated in a water bath at 95°C for 90 min. After cooling to room temperature, the absorbance of the mixture was recorded at 695 nm against blank. A standard antioxidant catechin was used for comparison.

[3] = Hydroxyl radical scavenging assay (deoxyribose degradation method); settings: mean ± SD (n = 3)
Protocol: The potential of the compounds to scavenge the hydroxyl free radical was assayed by the deoxyribose degradation method as described by Elizabeth and Rao [23]. Catechin was used as a reference antioxidant. Compound at different concentrations was mixed with a reaction mixture containing 2.8 mM 2-deoxy-2-ribose, 20 mM phosphate buffer (pH 7.4), 100 μM FeCl3, 100 μM EDTA, 1.0 mM H2O2, and 100 μM ascorbic acid and incubated at 37°C for 1 hour. This was then followed by the addition of 2.8% trichloro acetic acid (TCA) and 1% TBA. The reaction mixture was heated on a boiling water bath. After cooling, the absorbance was measured at 532 nm against an appropriate blank solution. The result was expressed as percent scavenging of hydroxyl radical in relation to the control. The IC50 values were calculated from the graph plotted as percent scavenging of hydroxyl free radical against concentration of each compound.

[4] = tested on: lipid peroxidation in mouse brain homogenate; assay: Lipid peroxidation inhibition assay (TBARS); format: biochemical; settings: ferric ion plus ascorbic acid, mean ± SD (n = 3)
Protocol: . Catechin was used as a reference antioxidant. Mouse brain homogenate was employed as the source of lipid which was prepared by homogenizing the brain in the phosphate buffer followed by centrifugation at 10,000 g. Lipid peroxidation was induced by ferric ion plus ascorbic acid. The TBARS produced from the reaction of lipid peroxides with thiobarbituric acid was determined colorimetrically at 532 nm. Results were presented as percentage of lipid peroxidation inhibition in relation to the control. The IC50 values were determined from the graph plotted as percent inhibition of lipid peroxidation against concentration of each compound.

[5] = biological target: T1, AChE (Mus musculus, UniProt P21836); assay: biochemical; settings: for Z-factor of acetylcholinesterase inhibitory activity: assay performance of the compound versus control
T1 construct: The AChE enzyme was prepared from mouse brain as described earlier; from tissue; host or cells: brain of Swiss albino mice
T1 sequence (P21836 32-614): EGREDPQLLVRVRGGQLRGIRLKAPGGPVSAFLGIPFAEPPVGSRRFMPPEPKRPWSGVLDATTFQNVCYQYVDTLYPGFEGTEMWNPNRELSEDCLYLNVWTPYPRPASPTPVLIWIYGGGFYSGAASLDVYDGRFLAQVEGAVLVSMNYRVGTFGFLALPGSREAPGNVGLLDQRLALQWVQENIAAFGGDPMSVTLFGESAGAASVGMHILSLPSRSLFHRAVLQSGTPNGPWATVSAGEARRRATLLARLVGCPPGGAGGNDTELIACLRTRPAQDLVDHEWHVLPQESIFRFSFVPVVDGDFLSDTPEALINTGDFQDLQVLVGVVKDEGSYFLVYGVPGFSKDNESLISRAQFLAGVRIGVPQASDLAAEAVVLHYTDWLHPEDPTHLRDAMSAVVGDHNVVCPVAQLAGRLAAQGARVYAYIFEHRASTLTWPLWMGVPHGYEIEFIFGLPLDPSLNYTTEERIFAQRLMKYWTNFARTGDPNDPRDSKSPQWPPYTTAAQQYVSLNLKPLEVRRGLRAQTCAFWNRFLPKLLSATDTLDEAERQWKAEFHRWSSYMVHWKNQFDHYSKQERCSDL
Protocol: The AChE enzyme was prepared from mouse brain as described earlier. Compound at different concentrations was mixed with AChE solution and incubated at 37°C for 15 min. The rates of hydrolysis by AChE was monitored by spectrophotometer at 405 nm immediately after adding an Ellman's reaction mixture containing 0.5 mM acetylthiocholine and 1 mM 5, 5′-dithio-bis (2-nitro benzoic acid) (DTNB) in a 50 mM phosphate buffer (pH 8.0) to the above reaction mixture. […] The percentage inhibition of AChE activity was calculated using the following formula:(1) Absorbance of control−Absorbance of sample/Absorbance of control×100.
IC50 value could be calculated from the inhibition curve obtained by plotting the percent inhibition values against test concentrations of each compound.
Quality of assay was assessed by using Z' factor as follows:(2) Z′=1−3σc++σc−/μc+−μc−, where σc+ and σc−are the standard deviations of the positive and negative control and μc+ and μc−are the means of the positive and negative control, respectively.

[6] = Reducing power assay (Fe+3-ferricyanide reduction)
Protocol: The reducing power of the compounds was determined by the method of Oyaizu. The compound (1 ml) was added to a mixture of 0.2 M potassium buffer (2.5 ml) and 1% potassium ferricyanide (2.5 ml) and incubated at 50°C for 20 minutes. Then, 10% TCA solution (2.5 ml) was added to the reaction mixture and centrifuged (3000 rpm) for 10 minutes. Finally, 2.5 ml of solution was mixed with 2.5 ml of double distilled water and 0.5 ml of 0.1% ferric chloride solution. The absorbance of the reaction mixture was recorded at 700 nm. A standard antioxidant catechin was used for comparison.

[7] = 100 μg/ml, 700 nm (as stated in Figure 4 legend), mean ± SD (n = 3)
[8] = mouse brain AChE, acetylthiocholine substrate, mean ± SD (n = 3), read-out: IC50, inhibition of acetylcholinesterase activity (converted)

Row | Compound | IC50, DPPH radical scavenging [1] | Total antioxidant activity, absorbance [2] | IC50, hydroxyl radical scavenging [3] | IC50, inhibition of lipid peroxidation [4] | IC50 [5] [µM] | Z-factor of acetylcholinesterase inhibitory activity [5] | Reducing power, absorbance ([6]; 80 μg/ml) | Reducing power, absorbance [6, 7] | IC50 [5, 8] [µM] | IC50, inhibition of acetylcholinesterase activity ([5]; mouse brain AChE, acetylthiocholine substrate, mean ± SD (n = 3))
1 | COc1cc(C=O)ccc1O [Compound 3, vanillin] | 19.64 ± 0.73 mg/L (≈ 129 µM) | 0.716 ± 0.020 | 21.72 ± 0.87 mg/L (≈ 143 µM) | 57.02 ± 2.78 mg/L | 556 | 0.91 | 0.746 ± 0.005 | 0.746 ± 0.005 |  | 
2 | COc1cc(CCCOC(=O)CCc2ccc(O)cc2)ccc1O [Compound 4, dihydroconiferyl dihydro-p-coumarate] | 12.16 ± 0.55 mg/L (≈ 36.8 µM) | 0.735 ± 0.022 | 15.07 ± 1.20 mg/L (≈ 45.6 µM) | 44.20 ± 1.01 mg/L |  | 0.87 | 0.894 ± 0.014 | 0.894 ± 0.014 | 358 | 
3 | O.Oc1cc(O)c2c(c1)O[C@H](c1ccc(O)c(O)c1)[C@@H](O)C2 [Catechin, reference compound] | 4.35 ± 0.09 mg/L | 1.739 ± 0.049 | 9.32 ± 0.39 mg/L | 14.10 ± 0.43 mg/L |  |  |  | 1.964 ± 0.019 |  | 
4 | CCCCC/C=C\C/C=C\CCCCCCCC(=O)OC [Compound 1, methyl linoleate] | no activity | no activity | no activity | no activity |  |  |  | no activity |  | no activity
5 | COc1cc(C=O)cc(OC)c1O [Compound 2, syringaldehyde] | 40.64 ± 1.68 mg/L (≈ 223 µM) | 0.336 ± 0.009 | 91.05 ± 3.75 mg/L (≈ 500 µM) | 141.60 ± 6.19 mg/L | 6960 | 0.80 | 0.667 ± 0.035 | 0.667 ± 0.035 |  | 
6 | COc1cc(O)cc(CCc2ccc(O)c(OC)c2)c1 [Compound 5, gigantol] | 4.16 ± 0.37 mg/L (≈ 15.2 µM) | 0.848 ± 0.029 | 6.61 ± 0.76 mg/L (≈ 24.1 µM) | 32.28 ± 1.10 mg/L |  | 0.80 | 1.865 ± 0.030 | 1.865 ± 0.030 | 2000 | 
